Measurements published in patent publication US8859535B2, “Hydroxy substituted isoquinolinone derivatives” (Novartis AG, priority 2011, dated 2014).

What was measured:
[1] = molecular target: T1, human MDM2 protein (amino acids 2-188) (Homo sapiens, UniProt Q00987); test: p53-MDM2 TR-FRET assay (p53-MDM2 Assay 1); type: binding; conditions: 1.25 nM MDM2-biotinylated, 10 nM Cy5-p53 peptide; read-out: IC50 (μM) of p53-Hdm2 inhibition (TR-FRET) Assay 1
T1 construct: human MDM2 protein (amino acids 2-188); made in house
T1 sequence (Q00987 2-188): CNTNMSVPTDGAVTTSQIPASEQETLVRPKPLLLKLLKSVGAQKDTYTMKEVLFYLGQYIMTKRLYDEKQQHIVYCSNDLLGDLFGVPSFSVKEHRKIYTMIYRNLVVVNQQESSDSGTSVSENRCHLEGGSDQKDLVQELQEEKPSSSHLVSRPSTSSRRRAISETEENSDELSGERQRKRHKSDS
Summary of the method: (§1)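 C-terminally biotinylated MDM2 (aa 2-188, 1.25 nM) or MDM4 (aa 2-185, 2.5 nM) with Eu-streptavidin (0.625 nM), 15 min preincubation, then 10 nM Cy5-p53 peptide (aa18-26), 15 min room temperature; TR-FRET 665/620 nm ratio, IC50 by curve fit. Modified MDM2 Assay 2 uses 0.1 nM MDM2 and 0.1 nM Eu-streptavidin.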

[2] = molecular target: T2, human MDM4 protein (amino acids 2-185) (Homo sapiens, UniProt O15151); test: p53-MDM4 TR-FRET assay (p53-MDM4 Assay 1); type: binding; conditions: 2.5 nM MDM4-biotinylated, 10 nM Cy5-p53 peptide; read-out: IC50 (μM) of p53-Hdm4 inhibition (TR-FRET) Assay 1
T2 construct: human MDM4 protein (amino acids 2-185); made in house
T2 sequence (O15151 2-185): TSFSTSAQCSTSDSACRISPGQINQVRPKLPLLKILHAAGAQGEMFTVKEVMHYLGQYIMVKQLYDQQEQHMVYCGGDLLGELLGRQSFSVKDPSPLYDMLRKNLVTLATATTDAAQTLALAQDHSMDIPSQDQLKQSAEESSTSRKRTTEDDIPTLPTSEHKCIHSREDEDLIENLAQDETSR
Summary of the method: as §1

IC50 [1] [µM] | IC50 [2] [µM] | SMILES
0.0052 | 5.63 | CNC(=O)N1CCC(C(C)(O)c2ccc(N3C(=O)Cc4cc(OC)c(OC(C)C)cc4[C@@H]3c3ccc(Cl)cc3)cc2)CC1 (stereo partly drawn) [Example 79, 4-(1-{4-[(S)-1-(4-Chloro-phenyl)-7-isopropoxy-6-methoxy-3-oxo-3,4-dihydro-1H-isoquinolin-2-yl]-phenyl}-1-hydroxy-ethyl)-piperidine-1-carboxylic acid methylamide]
0.0547 | 60.1 | COc1cc2c(cc1OC(C)C)[C@H](c1ccc(Cl)cc1)N(c1ccc(C(C)(O)C3CN(C)C3)cc1)C(=O)C2 (stereo partly drawn) [Example 70, (S)-1-(4-Chloro-phenyl)-2-{4-[1-hydroxy-1-(1-methyl-azetidin-3-yl)-ethyl]-phenyl}-7-isopropoxy-6-methoxy-1,4-dihydro-2H-isoquinolin-3-one]
0.011 | 13.5 | COc1cc2c(cc1OC(C)C)[C@H](c1ccc(Cl)cc1)N(c1ccc(C(C)(O)C3CCN(CC(F)(F)F)CC3)cc1)C(=O)C2 (stereo partly drawn) [Example 77, (S)-1-(4-Chloro-phenyl)-2-(4-{1-hydroxy-1-[1-(2,2,2-trifluoro-ethyl)-piperidin-4-yl]-ethyl}-phenyl)-7-isopropoxy-6-methoxy-1,4-dihydro-2H-isoquinolin-3-one]
0.0048 | 4.94 | CCN1CCC(C(C)(O)c2ccc(N3C(=O)Cc4cc(OC)c(OC(C)C)cc4[C@@H]3c3ccc(Cl)cc3)cc2)CC1 (stereo partly drawn) [Example 85, (S)-1-(4-Chloro-phenyl)-2-{4-[1-(1-ethyl-piperidin-4-yl)-1-hydroxy-ethyl]-phenyl}-7-isopropoxy-6-methoxy-1,4-dihydro-2H-isoquinolin-3-one]
0.005 | 7.17 | COc1cc2c(cc1OC(C)C)[C@H](c1ccc(Cl)cc1)N(c1ccc([C@@](C)(O)C3CCC(F)(F)CC3)cc1)C(=O)C2 (single isomer, unassigned) [Example 47]
0.0069 | 7.54 | COc1cc2c(cc1OC(C)C)[C@H](c1ccc(Cl)cc1)N(c1ccc(C(C)(O)C3CCN(C(=O)OC(C)C)CC3)cc1)C(=O)C2 (stereo partly drawn) [Example 83, 4-(1-{4-[(S)-1-(4-Chloro-phenyl)-7-isopropoxy-6-methoxy-3-oxo-3,4-dihydro-1H-isoquinolin-2-yl]-phenyl}-1-hydroxy-ethyl)-piperidine-1-carboxylic acid isopropyl ester]
0.0028 | 2.39 | COc1cc2c(cc1OC(C)C)[C@H](c1ccc(Cl)cc1)N(c1ccc(C(C)(O)C3CCN(C=O)CC3)cc1)C(=O)C2 (stereo partly drawn) [Example 89, 4-(1-{4-[(S)-1-(4-Chloro-phenyl)-7-isopropoxy-6-methoxy-3-oxo-3,4-dihydro-1H-isoquinolin-2-yl]-phenyl}-1-hydroxy-ethyl)-piperidine-1-carbaldehyde]
0.0041 | 4.99 | COc1cc2c(cc1OC(C)C)[C@H](c1ccc(Cl)cc1)N(c1ccc(C(C)(O)C3CCNCC3)cc1)C(=O)C2 (stereo partly drawn) [Example 43, (S)-1-(4-Chloro-phenyl)-2-[4-(1-hydroxy-1-piperidin-4-yl-ethyl)-phenyl]-7-isopropoxy-6-methoxy-1,4-dihydro-2H-isoquinolin-3-one]
0.0037 | 4.06 | COc1cc2c(cc1OC(C)C)[C@H](c1ccc(Cl)cc1)N(c1ccc(C(C)(O)C3CCOCC3)cc1)C(=O)C2 (mixture of isomers) [Example 30, (S)-1-(4-Chloro-phenyl)-2-{4-[1-hydroxy-1-(tetrahydro-pyran-4-yl)-ethyl]-phenyl}-7-isopropoxy-6-methoxy-1,4-dihydro-2H-isoquinolin-3-one]

The next lines start with the molecule.

SMILES | IC50 [1] [µM] | IC50 [2] [µM]
CC(C)Oc1cc2c(cc1OCc1ccccn1)CC(=O)N(c1ccc(C(C)(O)C3CCOCC3)cc1)[C@H]2c1ccc(Cl)cc1 (stereo partly drawn) [Example 146, (S)-1-(4-Chloro-phenyl)-2-{4-[1-hydroxy-1-(tetrahydro-pyran-4-yl)-ethyl]-phenyl}-7-isopropoxy-6-(pyridin-2-ylmethoxy)-1,4-dihydro-2H-isoquinolin-3-one] | 0.005 | 1.19
COc1cc2c(cc1OC(C)C)[C@H](c1ccc(Cl)cc1)N(c1ccc(C(C)(O)C3CN(C4CCCCC4)C3)cc1)C(=O)C2 (stereo partly drawn) [Example 99, (S)-1-(4-Chloro-phenyl)-2-{4-[1-(1-cyclohexyl-azetidin-3-yl)-1-hydroxy-ethyl]-phenyl}-7-isopropoxy-6-methoxy-1,4-dihydro-2H-isoquinolin-3-one] | 0.0279 | 24.6
COc1cc2c(cc1OC(C)C)[C@H](c1ccc(Cl)cc1)N(c1ccc(C(C)(O)c3cccnc3)cc1)C(=O)C2 (stereo partly drawn) [Example 16, (S)-1-(4-Chloro-phenyl)-2-[4-(1-hydroxy-1-pyridin-3-yl-ethyl)-phenyl]-7-isopropoxy-6-methoxy-1,4-dihydro-2H-isoquinolin-3-one] | 0.0058 | 8.42
COc1cc2c(cc1OC(C)C)[C@H](c1ccc(Cl)cc1)N(c1ccc(C(C)(O)C3CC(C)(C)OC(C)(C)C3)cc1)C(=O)C2 (some centres unmarked) [Example 162] | 0.0065 | 5.53
COc1cc2c(cc1OC(C)C)[C@H](c1ccc(Cl)cc1)N(c1ccc(C(C)(O)C3CN(C(=O)N(C)C)C3)cc1)C(=O)C2 (stereo partly drawn) [Example 68, 3-(1-{4-[(S)-1-(4-Chloro-phenyl)-7-isopropoxy-6-methoxy-3-oxo-3,4-dihydro-1H-isoquinolin-2-yl]-phenyl}-1-hydroxy-ethyl)-azetidine-1-carboxylic acid dimethylamide] | 0.0152 | 15
COc1cc2c(cc1OC(C)C)[C@H](c1ccc(Cl)cc1)N(c1ccc(C(C)(O)c3ccc(NC(C)=O)cc3)cc1)C(=O)C2 (mixture of isomers) [Example 21, N-[4-(1-{4-[(S)-1-(4-Chloro-phenyl)-7-isopropoxy-6-methoxy-3-oxo-3,4-dihydro-1H-isoquinolin-2-yl]-phenyl}-1-hydroxy-ethyl)-phenyl]-acetamide] | 0.0071 | 10.4
COc1ccc(C(O)c2ccc(N3C(=O)Cc4cc(OC)c(OC(C)C)cc4[C@@H]3c3ccc(Cl)cc3)cc2)cc1 (stereo partly drawn) [Example 4, (S)-1-(4-Chloro-phenyl)-2-{4-[hydroxy-(4-methoxy-phenyl)-methyl]-phenyl}-7-isopropoxy-6-methoxy-1,4-dihydro-2H-isoquinolin-3-one] | 0.0107 | 17.3
COc1cc2c(cc1OC(C)C)[C@H](c1ccc(Cl)cc1)N(c1ccc(C(C)(O)c3ccn(C)n3)cc1)C(=O)C2 (stereo partly drawn) [Example 14, (S)-1-(4-Chloro-phenyl)-2-{4-[1-hydroxy-1-(1-methyl-1H-pyrazol-3-yl)-ethyl]-phenyl}-7-isopropoxy-6-methoxy-1,4-dihydro-2H-isoquinolin-3-one] | 0.0494 | 53.7
COc1cc2c(cc1OC(C)C)[C@H](c1ccc(Cl)cc1)N(c1ccc(C(C)(O)c3ccc(NC(C)=O)cc3)c(F)c1)C(=O)C2 (stereo partly drawn) [Example 28, N-[4-(1-{4-[(S)-1-(4-Chloro-phenyl)-7-isopropoxy-6-methoxy-3-oxo-3,4-dihydro-1H-isoquinolin-2-yl]-2-fluoro-phenyl}-1-hydroxy-ethyl)-phenyl]-acetamide] | 0.0066 | 9.7
CC(C)Oc1cc2c(cc1OCC1COC1)CC(=O)N(c1ccc(C(C)(O)C3CCOCC3)cc1)[C@H]2c1ccc(Cl)cc1 (stereo partly drawn) [Example 147, (S)-1-(4-Chloro-phenyl)-2-{4-[1-hydroxy-1-(tetrahydro-pyran-4-yl)-ethyl]-phenyl}-7-isopropoxy-6-(oxetan-3-ylmethoxy)-1,4-dihydro-2H-isoquinolin-3-one] | 0.0086 | 3.05
